The text below walks through data of patent publication US20240415789A1, “CYCLOBENZAPRINE FOR TREATMENT OR PREVENTION OF SEXUAL DYSFUNCTION ASSOCIATED WITH MENTAL HEALTH CONDITIONS IN FEMALE PATIENTS” (Tonix Pharmaceuticals Holding Corp., priority 2021, published 2024).

SMILES strings stand for the structures. Counter-ions that a name gives are not always drawn. Like-named read-outs stand apart in the source and are kept apart here.

For data set [1] the following is noted: both Phase 3 studies. As to the method:
(§1) Three randomized, placebo-controlled and double-blind clinical trials of the above described 5.6 mg cyclobenzaprine HCl sublingual formulation (2×2.8 mg tablets) were performed, a Phase 2 study and a Phase 3 study in military-related PTSD, and a Phase 3 study in predominantly civilian PTSD. […] The present retrospective analysis examined the activity of the cyclobenzaprine HCl sublingual formulation on the Changes in Sexual Functioning Questionnaire short form (CSFQ-14) in the two Phase 3 studies.
(§2) In the Phase 3 study in predominantly civilian PTSD, the inclusion criteria were broadened to include civilian participants with current PTSD, as determined by the CAPS-5. Accordingly, this study included 94% civilian trauma with a minimum baseline severity score of ≥33 on the CAPS-5. […] Thus, analyses were conducted on the interim analysis sample of 252 participants in the military Phase 3 study (89% male [n=225 M; n=27 F]; 100% military PTSD) and […] subjects in the civilian Phase 3 study (79% female [n=129 F; n=34 M]; 94% civilian PTSD).

For data set [2] the following is noted: Phase 2 study in military-related PTSD, drug and placebo groups. As to the method:
as §1

Data set [3] deals with PTSD. The following applies: all three trials (Phase 2, two Phase 3), 5.6 mg dose. The protocol:
as §1

Data set [4] deals with female sexual functioning in females with military-related PTSD. The following applies: military Phase 3, females 5.6 mg (N=8) vs placebo (N=16), 12 weeks. The protocol:
(§3) Methods: In this 12-week, multicenter, adaptive design, randomized controlled fixed-dose trial, 5.6 mg cyclobenzaprine HCl (2×2.8 mg sublingual tablets, comprising a 75%±2% cyclobenzaprine HCl and 25%±2% mannitol eutectic and a potassium phosphate dibasic anhydrous basifying agent) taken daily at bedtime was compared to placebo for the treatment of PTSD at 45 U.S. sites. […] A pre-planned interim analysis was conducted when about half the originally planned sample of 550 participants had outcome data.
(§4) The modified intention-to-treat (mITT) population, which included all randomized subjects with at least one post-baseline CAPS-5, included 125 participants treated with 5.6 mg dose per day the above cyclobenzaprine HCl sublingual formulation and 127 participants on placebo were studied.
Sexual functioning was measured by Changes in Sexual Functioning Questionnaire short-form (CSFQ-14) which is a validated 14-item measure (Keller, McGarvey, Clayton, 2006). Parallel gender-specific versions are administered to males (CSFQ-14-M) and females (CSFQ-14-F), and each sex was analyzed separately. In addition to a total sexual functioning score, there are five sub-scales: desire/frequency, desire/interest, arousal/excitement, orgasm/complete, and pleasure. The scales range from (never) to (every day) and higher scores reflect greater levels of sexual functioning.
as §2
(§5) The CSFQ-14 is a validated 14-item measure (Keller, McGarvey, Clayton, 2006) that has male and female versions which were analyzed separately. In addition to a total sexual functioning score, there are five sub-scales: desire/frequency, desire/interest, arousal/excitement, orgasm/complete, and pleasure. The items range on 5-point Likert scale from (never) to (every day). Higher scores reflect greater levels of sexual functioning.

In data set [5] the test system is female sexual functioning in females with predominantly civilian PTSD. The note with it: civilian Phase 3, female completers 5.6 mg (N=58) vs placebo (N=55), 12 weeks. The protocol:
as §1, §2, §5

In data set [6] the test system is military-related PTSD. The following applies: female subgroup (10 active, 17 placebo), 5.6 mg per day sublingual, after 12 weeks of treatment. As to the method:
as §3, §4

The procedure of data set [7]:
as §3, §4

Turning to `CN(C)CCC=C1c2ccccc2C=Cc2ccccc21` [cyclobenzaprine HCl], in data set [1], the “severity of oral hypoaesthesia” value is listed as “never rated as severe”. Also, the “most frequent adverse event” value in data set [1] (5.6 mg sublingual) was “oral hypoaesthesia”. Besides, the “duration of oral hypoaesthesia post administration” value in data set [1] (generally transient) was below 60 min. Moreover, the “most common systemic adverse event” value in data set [1] (also never rated as severe) was “somnolence”. Also, in data set [2], the “rates of adverse events related to sexual function” value was “very low rates”. In addition, in data set [3], the “activity on clinician- and patient-rated global PTSD symptoms (CGI and PGIC)” value is reported as “encouraging activity”. In addition, in data set [4], the “CSFQ-14-F arousal/excitement subscale, Hedges' g vs placebo” value worked out at 0.55; the “CSFQ-14-F desire/frequency subscale, Hedges' g vs placebo” value came to 0.46; the “CSFQ-14-F desire/interest subscale, Hedges' g vs placebo” value is reported as 0.63; the “CSFQ-14-F orgasm/completion scale, effect vs placebo” value is reported as “No effect”. In data set [4], the “CSFQ-14-F pleasure subscale, Hedges' g vs placebo” value turned out to be 0.54 and the “CSFQ-14-F total score, Hedges' g effect size vs placebo” value is reported as 0.49. Also, in data set [5], the “CSFQ-14-F arousal/excitement subscale, Hedges' g vs placebo” value was found to be 0.33; the “CSFQ-14-F desire/frequency subscale, Hedges' g vs placebo” value came out at 0.21; the “CSFQ-14-F desire/interest subscale, Hedges' g vs placebo” value was 0.23; the “CSFQ-14-F orgasm/completion subscale, Hedges' g vs placebo” value was found to be 0.29. Besides, the “CSFQ-14-F pleasure subscale, Hedges' g vs placebo” value in data set [5] was 0.19. For the same molecule, the “CSFQ-14-F total score, Hedges' g effect size vs placebo” value in data set [5] (p=0.07) amounted to 0.37. Further, in data set [6], the “observed mean improvement in CAPS-5 over placebo” value is given as −9.1 units. Also, the “severity of oral hypoaesthesia” value in data set [7] (military Phase 3) was “never rated as severe”. Also, in data set [7] (military Phase 3, 5.6 mg dose (placebo: two)), the “participants with at least one AE leading to study discontinuation” value was found to be 8 participants. Also, the “most frequent adverse event” value in data set [7] (military Phase 3, 5.6 mg sublingual daily at bedtime) is “oral hypoaesthesia”. The “duration of oral hypoaesthesia post administration” value in data set [7] (military Phase 3, generally transient) was below 60 min. Besides, the “most common systemic adverse event” value in data set [7] (military Phase 3, also never rated as severe) is on record as “somnolence”.
